# Experimental data from US3995055A, “Method for treating peptic ulcers” (priority 1975, dated 1976).
# “Also recorded” adds a separate entry of the source. Structures can show the parent of a compound that is named as a salt.
# What was measured:
# gastric juice = experiment: Mode of activity: action on gastric juice; parameters: key: the symbol (+) shows that a particular agent has the indicated activity; the symbol (-) shows that the particular agent does not have the indicated activity; symbol (±) shows that the particular agent has a slight activity
# Description: As stated above, DV-1006 acts very strongly both on the aggressive factors and the defensive factors as compared with conventional anti-ulcer agents. […] In the treatment of peptic ulcers, the action of an agent on the gastric juice can be classified roughly into the following five categories: […]
# [1] = test system: clamping-cortisone ulcers; experiment: Clamping-Cortisone Ulcer Test; format: in vivo, rats; conditions: for Effectiveness on Clamping-Cortisone Ulcer (defensive factors): Table 1
# Protocol: (§1) Each of the drugs shown in FIG. 2 was administered orally once in a day for 14 days starting on the day on which the aluminum metal plate was removed. On the fifteenth day, the rats were killed under ether anaesthesia, and the ulcer index and the mucopolysaccharase activity in the stomach tissue were measured.
# Then, 5 mg/Kg of hydrocortisone acetate was intramuscularly injected into the rats once a day for 7 days starting on the day on which the aluminum metal plate was removed. Each of the agents shown in FIG. 3 was administered orally to the rats once a day for 11 days starting on the day on which the administration of hydrocortisone acetate was stopped.
# carbachol stimulation = experiment: Carbachol stimulation in the Gosh and Schild method; format: in vivo
# Description: (§2) Incidentally, it appears from the above table that anticholinergic agents produce […] those produced by DV-1006. […] From a pharmacological standpoint, DV-1006 has the activity selectively inhibiting the secretion of pepsin without affecting acidity and the activity of pepsin itself.
# pepsin secretion = experiment: Pepsin Secretion Inhibition Test (beef bouillon pot-au-feu soup stimulating test); format: in vivo, Heidenhain pouch dogs; conditions: 150 mg/Kg orally, second stimulation 75 minutes later; FIG. 4
# Protocol: After oral administration (first stimulation) of 70 ml of a mixture (100 ml) of 6 g of beef bouillon and 6 g of pot-au-feu soup, gastric juice was extracted every 15 minutes. When the secretion of gastric juice returned almost to the value before the stimulation, DV-1006 was orally administered at a dosage of 150 mg/Kg. The second stimulation was given 75 minutes later in the same way as in the first stimulation, and the amount of gastric juice secreted and the amount of pepsin secreted were measured [by the modified method of Anson-Maskey (see J. Gen. Physiol., 16, 59 (1932))] with the passage of time.
# clamping ulcers = experiment: Clamping Ulcer Test; format: in vivo, Wistar male rats; conditions: for Effectiveness on Clamping Ulcer (defensive factors): Table 1
# Protocol: as §1
# drug ulcers = experiment: Drug Ulcer Test (indomethacin, aspirin, phenylbutazone); format: in vivo, rats; conditions: for Inhibitory Ratio, Aspirin ulcer: aspirin 300 mg/Kg; for Inhibitory Ratio, Indomethacin ulcer: indomethacin 25 mg/Kg; for Inhibitory Ratio, Phenylbutazone ulcer: phenylbutazone 200 mg/Kg; for Effectiveness on Drug Ulcer (defensive factors): Table 1
# Protocol: Female rats each weighing about 150 g (5 in each group) were starved for 20 hours, and then DV-1006 was administered to the rats. After one hour, 25 mg/Kg of indomethacin, 300 mg/Kg of aspirin and 200 mg/Kg of phenylbutazone, respectively, were administered orally to the rats and the rats were further starved for 5 hours. The stomach of each of the rats was removed, and the ulcer index was measured.
# For comparison, the above procedure was repeated except that gefarnate and aluminum sucrose sulfate were used in their basic customary dosages.
# acetic ulcers = experiment: 10% Acetic Acid Ulcer Test; format: in vivo, Wistar rats; conditions: for Effectiveness on Acetic Ulcer (defensive factors): Table 1
# Protocol: Each of the drugs shown in FIG. 1 was orally administered to the rats once a day for 8 days starting on the date on which the acetic acid was injected. On the ninth day the rats were killed under ether anaesthesia. The stomach of each rat was removed, and opened along the greater curvature. The ulcer index was measured by means of slide calipers, and then the glandular stomach tissue was homogenized by adding a suitable amount of a physiological salt solution, and centrifuged for 20 minutes at a rate of 12,000 rpm.
# gastric ulcers = experiment: Clinical test in gastric ulcer patients; format: in vivo
# Protocol: Further, in order to confirm the anti-ulcer activities of the compounds of the general formula (I), clinical tests were also conducted using DV-1006 as a representative example of the compounds of the general formula (I). These clinical tests were performed on patients with gastric ulcers at National Zentsuji Hospital in Tokushima Prefecture, Japan.
# 30 gastric ulcer patients at the Internal Treatment Department of National Zentsuji Hospital in Tokushima Prefecture, Japan, who had been so diagnosed by X-ray and endoscopes, were treated for 8 weeks using an oral administration of DV-1006 at a dosage of 200 mg three times per day. At the end of the 8-week period, 21 patients were completely cured (70%), the condition of 7 patients had been alleviated (23%).
# [2] = General anticholinergic activities
# Description: as §2
# Shay ulcers [3] = experiment: Shay Ulcer Test (oral administration); format: in vivo, Donryu rats; conditions: for inhibitory ratio (Shay ulcer): 18 hours after ligation; for Effectiveness on Shay Ulcer (aggressive factors): Table 1
# Protocol: (§3) Donryu rats each weighing 200 to 240 g (six in each group) were starved for 48 hours, and ligated at a portion of the duodenum near the pylorus by the method of Shay et al (see Gastroenterology, 54, 43 (1945)). Immediately after the ligation, DV-1006 was orally administered to the rats at a dosage of 300 mg/Kg. After 18 hours, the abdomen of each of the rats was incised, and the stomach was removed.
# In the same way as described above, gefarnate, a conventional anti-ulcer agent, was administered to the rats at a dosage of 100 mg/Kg.
# Shay ulcers [4] = experiment: Shay Ulcer Test by Intraperitoneal Administration; format: in vivo, Donryu rats; conditions: Rattus norvegicus, ip, 18 h, read-out: Inhibitory Ratio; for inhibition in vivo at 350 mg/kg: 350 mg/Kg intraperitoneally in 0.5% CMC
# Protocol: as §3
# Some typical compounds of formula (I) were tested on Shay ulcers in the same way as described in Example 2 except that each of the compounds was suspended in a 0.5% aqueous solution of carboxymethyl cellulose and administered intraperitoneally.
compound,measurement,setting,value
"NC[C@H]1CC[C@H](C(=O)Oc2ccc(CCC(=O)O)cc2)CC1 [DV-1006, 4'-(2-carboxyethyl)phenyl.trans-4-aminomethylcyclohexane carboxylate]",Action on Gastric Juice: Amount of Gastric Juice,gastric juice; activity of controlling gastric juice,+
same,Action on Gastric Juice: Acids Activity,gastric juice; inhibitory action on acids,-
same,Action on Gastric Juice: Pepsin Activity,gastric juice; inhibitory action on the activity of pepsin itself,-
same,Action on Gastric Juice: Acid Secretion,gastric juice; inhibitory action on the secretion of acids,±
same,Action on Gastric Juice: Pepsin Secretion,gastric juice; inhibitory action on the secretion of pepsin,+
same,Effectiveness on Clamping-Cortisone Ulcer (defensive factors),[1],+
same,action on clamping-cortisone ulcers,[1]; model of chronic ulcers,especially strong action
same,action on the activity of β-glucuronidase in stomach tissue,"[1]; oral once a day for 11 days, twentieth day, FIG. 3",especially significant inhibitory action
same,inhibitory activity on carbachol stimulation,carbachol stimulation,does not exhibit any inhibitory activity
same,amount of gastric juice secreted,pepsin secretion,reduced
same,pepsin secretion,pepsin secretion,markedly inhibited
same,Effectiveness on Clamping Ulcer (defensive factors),clamping ulcers,+
same,action on β-glucuronidase in stomach tissue,"clamping ulcers; oral once a day for 14 days, fifteenth day, FIG. 2",especially significant inhibitory action
same,"Inhibitory Ratio, Aspirin ulcer",drug ulcers; 300 mg/Kg p.o.,65.3%
same,"Inhibitory Ratio, Indomethacin ulcer",drug ulcers; 300 mg/Kg p.o.,30.2%
same,"Inhibitory Ratio, Phenylbutazone ulcer",drug ulcers; 300 mg/Kg p.o.,70.0%
same,Effectiveness on Drug Ulcer (defensive factors),drug ulcers,+
same,dose-response of action on acetic acid ulcers,acetic ulcers; FIG. 1,showed a dose-response
same,Effectiveness on Acetic Ulcer (defensive factors),acetic ulcers,+
same,activity of the mucopolysaccharase in the ulcer portion,"acetic ulcers; glandular stomach tissue, ninth day, FIG. 1",reduced
same,action on ulcers caused by acetic acid (visual ulcer indices),"acetic ulcers; oral once a day for 8 days, ninth day, FIG. 1",marked inhibitory action; also recorded: especially strong action
same,side-effects in patients,"gastric ulcers; oral 200 mg three times per day, 8 weeks",No side-effects were observed
same,curing effect on peptic ulcers,gastric ulcers; orally for several days at 300 to 1200 mg/day,very marked curing effect
same,general anticholinergic activities,[2],does not show general anticholinergic activities
same,inhibitory ratio (Shay ulcer),"Shay ulcers [3]; 300 mg/Kg orally, method of Adami et al.",100%
same,Effectiveness on Shay Ulcer (aggressive factors),Shay ulcers [3],+
COc1cc(C=O)ccc1OC(=O)[C@H]1CC[C@H](CN)CC1,inhibition in vivo at 350 mg/kg,Shay ulcers [4],84%
NC[C@H]1CC[C@H](C(=O)Oc2ccccc2)CC1,inhibition in vivo at 350 mg/kg,Shay ulcers [4],84%
aluminum sucrose sulfate,Effectiveness on Clamping-Cortisone Ulcer (defensive factors),[1],-
same,Effectiveness on Clamping Ulcer (defensive factors),clamping ulcers,+
same,"Inhibitory Ratio, Aspirin ulcer",drug ulcers; 1000 mg/Kg p.o.,38.6%
same,"Inhibitory Ratio, Indomethacin ulcer",drug ulcers; 1000 mg/Kg p.o.,40.0%
same,"Inhibitory Ratio, Phenylbutazone ulcer",drug ulcers; 1000 mg/Kg p.o.,38.0%
same,Effectiveness on Drug Ulcer (defensive factors),drug ulcers,+
same,Effectiveness on Acetic Ulcer (defensive factors),acetic ulcers,+
same,Effectiveness on Shay Ulcer (aggressive factors),Shay ulcers [3],+
NC[C@H]1CC[C@H](C(=O)Oc2ccc(Cl)cc2)CC1,inhibition in vivo at 175 mg/kg,Shay ulcers [4]; 175 mg/Kg intraperitoneally in 0.5% CMC,62%
NC[C@H]1CC[C@H](C(=O)Oc2ccc(CCC(=O)O)cc2)CC1 [drawing 3],inhibition in vivo at 350 mg/kg,Shay ulcers [4],70%
NC[C@H]1CC[C@H](C(=O)Oc2ccc(C(=O)O)cc2)CC1,inhibition in vivo at 350 mg/kg,Shay ulcers [4],71%
CN1[C@@H]2CC[C@H]1C[C@@H](OC(=O)C(CO)c1ccccc1)C2 (stereo partly shown) [atropine sulfate],Effectiveness on Drug Ulcer (defensive factors),drug ulcers,-
same,Effectiveness on Acetic Ulcer (defensive factors),acetic ulcers,+
same,Effectiveness on Shay Ulcer (aggressive factors),Shay ulcers [3],+
NC[C@H]1CC[C@H](C(=O)Oc2ccc3ccccc3c2)CC1,inhibition in vivo at 350 mg/kg,Shay ulcers [4],84%
NC[C@H]1CC[C@H](C(=O)Oc2ccc(-c3ccccc3)cc2)CC1,inhibition in vivo at 350 mg/kg,Shay ulcers [4],58%
CC(C)=CCC/C(C)=C/CC/C(C)=C/CCC(=O)OC/C=C(\C)CCC=C(C)C [gefarnate],Effectiveness on Clamping-Cortisone Ulcer (defensive factors),[1],+
same,Effectiveness on Clamping Ulcer (defensive factors),clamping ulcers,+
same,"Inhibitory Ratio, Aspirin ulcer",drug ulcers; 100 mg/Kg p.o.,42.8%
same,"Inhibitory Ratio, Indomethacin ulcer",drug ulcers; 100 mg/Kg p.o.,29.0%
same,"Inhibitory Ratio, Phenylbutazone ulcer",drug ulcers; 100 mg/Kg p.o.,31.5%
same,Effectiveness on Drug Ulcer (defensive factors),drug ulcers,+
same,Effectiveness on Acetic Ulcer (defensive factors),acetic ulcers,-
same,inhibitory ratio (Shay ulcer),Shay ulcers [3]; 100 mg/Kg orally,83%
same,Effectiveness on Shay Ulcer (aggressive factors),Shay ulcers [3],-
NC[C@H]1CC[C@H](C(=O)Oc2ccc(C=CC(=O)O)cc2)CC1,inhibition in vivo at 350 mg/kg,Shay ulcers [4],76%
NC[C@H]1CC[C@H](C(=O)Oc2ccc(CC(N)C(=O)O)cc2)CC1 (stereo partly shown),inhibition in vivo at 350 mg/kg,Shay ulcers [4],71%
